Measurements reported in PMC12345137 (mBio, 2025).
“Also recorded” adds a separate entry of the source. Where two headings read alike, the source gives them in different places. Positions of bridges follow the written chain, without caps; N, C: chain ends. Residues, ends and D or L forms follow the SMILES beside them.

What was measured:
[1] = system: S. aureus (SA) agr-III; conditions: b-lactamase, cited from earlier work
[2] = system: S. aureus agr-I P3-YFP reporter strain; test: Quorum sensing inhibition resistance development experiment; type: cell-based, Staphylococcus aureus; conditions: flow cytometry
Description: The next day, YFP expression levels were assessed by flow cytometry (YFP: excitation 500 nm, emission 541 nm), and the overnight cultures were diluted 1:250 in fresh TSB medium containing CAM and 33 or no peptide (final volume 2.0 mL) and incubated overnight at 37°C in a shaking incubator. The procedure was repeated in total for 15 days, and the passaged cultures were subsequently frozen at −80°C. The passaged cultures were inoculated from frozen stocks in 2.0 mL TSB medium containing CAM in 15 mL centrifugal tubes and incubated overnight at 37°C in a shaking incubator.

[3] = system: methicillin resistant S. aureus (MRSA43484); type: in vivo, Balb/c female mice
Description: The mouse model was performed under contract at Statens Serum Institut (DK) essentially as previously described ([64]). […] All animal experiments were approved by the National Committee of Animal Ethics, Denmark. Mice were anesthetized, and the hair was removed on a 2 cm^2 skin area on the back, and thereafter, the outermost layer of the skin was scraped off with a dermal curette to obtain a 1 cm^2 superficial skin lesion. For vehicle control and Fucidin treatment, 10 μL inoculum containing approximately 10^7 CFU of methicillin resistant S. aureus (MRSA43484) were spread on the skin lesions. […] This leads to the absolute application of 1 nmol, corresponding to ~10-fold less inhibitory AIP than previously tested in other murine epicutaneous infection models ([12], [13], [15]). After the inoculum had dried, the mice were placed in a cage and kept in a warming cabinet until fully awake. The topical skin treatment with Fucidin was initiated one day after inoculation (days 2, 3, and 4) by spreading 50 μL of Fucidin on the inoculated skin area once a day. Skin lesion size and body weight were measured on days 1, 2, and 4 of all mice. Mice were sacrificed on days 1 (n = 8 vehicle), 2 (n = 4 vehicle, Fucidin, 33), and 4 (n = 4 vehicle, Fucidin, 33), and the infected skin area was cut out and homogenized to determine the CFU count in the skin lesions. Statistical testing was conducted using one-way analysis of variance (ANOVA) with multiple comparisons (Dunnett’s test) and an alpha level of 0.05.

[4] = system: S. aureus (SA) agr-I; parameters: method as in ref (5) (a number printed in a supplementary file, which may have a reference list of its own: not looked up in the article's list); conditions: hemolysis; ref (5); cited from earlier work
[5] = system: S. aureus (SA) agr-IV; parameters: method as in ref (5) (a number printed in a supplementary file, which may have a reference list of its own: not looked up in the article's list); conditions: hemolysis; ref (5); cited from earlier work
[6] = system: S. epidermidis (SE) agr-II; conditions: fluorescence; at 100 nM; ref (11); cited from earlier work

## CC[C@H](C)[C@@H]1NC(=O)[C@H](Cc2ccccc2)NC(=O)[C@H](CC(=O)O)NC(=O)[C@@H](NC(=O)[C@@H](NC(=O)[C@H](CO)NC(=O)[C@@H](N)Cc2ccc(O)cc2)[C@@H](C)O)CSC(=O)[C@H](CCSC)NC1=O [compound 1, S. aureus AIP-I] (H-YSTCDFIM; thioester 4-C)
[1]; ref (2)
  IC50: 3.1 ± 1.3 nM
[1]; ref (4)
  IC50: 3 nM

## NCCCC[C@H](N)C(=O)N[C@@H](Cc1ccc(O)cc1)C(=O)N[C@@H](Cc1ccc(O)cc1)C(=O)N1CCC[C@H]1C(=O)N[C@H]1CSC(=O)[C@H](Cc2ccccc2)NC(=O)[C@H](Cc2ccc(O)cc2)NC(=O)CNC(=O)[C@H](Cc2c[nH]c3ccccc23)NC1=O [compound 33, S. simulans AIP-II] (H-KYYPCWGYF; thioester 5-C)
[2]; 33 at 2 nM or 100 nM
  agr activity during daily passaging for 15 days: full repression of agr activity; also recorded: repressed agr activity
[2]; passaged cultures treated with 33 (10–0.08 nM)
  susceptibility to QS inhibition after 15 passages compared with non-passaged reporter strain: no change in potency; also recorded: remained equally susceptible
[3]; 33: 100 μM in MRSA inoculum (10^7 CFU), single, Fucidin daily, P = 0.0174 (33), P = 0.0108 (fusidic acid)
  skin lesion size compared with the vehicle control after 48 h: significant reduction
[3]; 33: 100 μM in MRSA inoculum (10^7 CFU), single, Fucidin daily, P = 0.0249 (33), P = 0.0202 (fusidic acid)
  skin lesion size compared with the vehicle control after 96 h: significant reduction
[3]; 33: 100 μM single (P = 0.009), fusidic acid daily (P = 0.0168)
  decrease in bacterial load compared with vehicle control after 4 days: ~ 60 fold

## S. aureus AIP-III D4A [compound 57, reference compound]
[4]
  IC50: 0.082 nM
[5]
  IC50: 0.11 nM
[6]
  inhibition at 100 nM, SE agr-II: ~ 70%
